In patent US20230116196A1, “METHOD OF TREATING CNS DISORDERS WITH NEU[…] GABAERGIC COMPOUNDS” (priority 2017, published 2023):

Tested on: GT1-7 cells
Experiment: Immunoblot of β3 S408/9 phosphorylation in GT1-7 cells
Format: cell-based
Conditions: 100 nM, 15 min
Method: GT1-7 cells that co-express mPRα and GABAARs were used to measure the level of phosphorylation at S408/9 position of β3 subunit. […] Expression of mPRα was confirmed using western blotting.
GT1-7 cells were treated with 100 nM AllO or P4 for 15 min and immunoblotted with antibodies specifically recognizing β3, actin, and […] β3 subunit (pS408/9). The ratio of pS408/9 β3 subunit immunoreactivity were then normalized to levels seen in vehicle treated to controls, n=6.

## CC(=O)[C@H]1CC[C@H]2[C@@H]3CC[C@H]4C[C@H](O)CC[C@]4(C)[C@H]3CC[C@]12C [ALLO, Allopregnanolone]
  S408/9 phosphorylation in GT1-7 cells: increase
